How the values were obtained:
Experiment in all cases: sunitinib treatment, viability of NSCLC cell line (IC50)
[1] = test system: H358; type: cell-based
[2] = test system: A549; type: cell-based
[3] = test system: H157; type: cell-based
[4] = test system: H520; type: cell-based
[5] = test system: H1703; type: cell-based
[6] = test system: H322C

IC50 ([1]; Homo sapiens, NCI-H358, H358 cell line, sunitinib): > 10 µM
IC50 ([2]; Homo sapiens, A549 cell line, sunitinib): > 10 µM
IC50 ([3]; Homo sapiens, NCI-H157, H157 cell line, sunitinib): > 10 µM
IC50 ([4]; Homo sapiens, NCI-H520, H520 cell line, sunitinib): 1 to 3 µM
IC50 ([5]; Homo sapiens, NCI-H1703, H1703 cell line, sunitinib): < 0.5 µM
IC50 [6]: 9 to 10 µM
SMILES: CCN(CC)CCNC(=O)c1c(C)[nH]c(/C=C2\C(=O)Nc3ccc(F)cc32)c1C [sunitinib, N-[2-(diethylamino)ethyl]-5-[(Z)-(5-fluoro-1,2-dihydro-2-oxo-3H-indol-3-ylidine)methyl]-2,4-dimethyl-1H-pyrrole-3-carboxamide]
sensitivity of cell line to sunitinib ([1]; untransfected H358): resistant (sunitinib resistant (defined solely for the purposes of this example as having IC50>9 μM))
sensitivity of cell line to sunitinib ([2]; untransfected A549): resistant (sunitinib resistant (defined solely for the purposes of this example as having IC50>9 μM))
sensitivity of cell line to sunitinib ([3]; untransfected H157): resistant (sunitinib resistant (defined solely for the purposes of this example as having IC50>9 μM))
sensitivity of cell line to sunitinib ([4]; untransfected H520): sensitive (sunitinib sensitive (defined solely for the purposes of this example as having an IC50<3 μM))
sensitivity of cell line to sunitinib ([5]; untransfected H1703): sensitive (sunitinib sensitive (defined solely for the purposes of this example as having an IC50<3 μM))
sensitivity of cell line to sunitinib ([6]; untransfected H322C): resistant (sunitinib resistant (defined solely for the purposes of this example as having IC50>9 μM))
